Structures can show the parent of a compound that is named as a salt.
Biological target: full-length human HDAC11 (Homo sapiens (Human), UniProt Q96DB2)
Assay: Probe binding HDAC11 time resolved fluorescence (TRF) assay
Conditions: Table 2, read-out: HDAC11 IC50 Range
Protocol: The probe binding HDAC11 assay was performed using a time resolved fluorescence (TRF) assay format. Recombinant N-terminal GST tag full-length human HD AC 11 was expressed and purified from baculovirus in Sf9 insect cells (SignalChem, #H93-30G-1000). […] 4 μL of 2× probe and 2× anti-GST Terbium (Cisbio, #61GSTXLB) was added to assay plates followed by 4 μL of 2×HDAC11.
Data from HD AC 11 Assays were reported as percent inhibition (inh) compared with control wells based on the following equation: % inh=1−((FLU−AveLow)/(AveHigh−AveLow)) where FLU=measured time resolved fluorescence. AveLow=average time resolved fluorescence of no enzyme control (n=32). AveHigh=average time resolved fluorescence of DMSO control (n=32). IC50 values were determined by curve fitting of the standard 4 parameter logistic fitting algorithm included in the Activity Base software package: IDBS XE Designer Model205. Data is fitted using the Levenburg Marquardt algorithm.

Sequence of full-length human HDAC11 (Q96DB2 whole entry): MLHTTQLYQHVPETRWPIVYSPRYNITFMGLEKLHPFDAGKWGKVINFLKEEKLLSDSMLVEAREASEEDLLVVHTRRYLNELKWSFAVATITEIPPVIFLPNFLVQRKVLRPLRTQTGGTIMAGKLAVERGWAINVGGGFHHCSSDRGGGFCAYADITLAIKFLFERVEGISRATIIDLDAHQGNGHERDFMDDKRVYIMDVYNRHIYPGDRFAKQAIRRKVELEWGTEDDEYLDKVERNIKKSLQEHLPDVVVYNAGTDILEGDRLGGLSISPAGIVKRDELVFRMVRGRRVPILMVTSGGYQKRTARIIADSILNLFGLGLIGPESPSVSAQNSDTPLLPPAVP

Row | SMILES | IC50 [nM]
1 | O=C(NO)c1cccc2c1CN(c1cccc(C(F)(F)F)n1)C2 [Compound 45-2, N-hydroxy-2-(6-(trifluoromethyl)pyridin-2-yl)isoindoline-4-carboxamide] | > 1000
2 | O=C(NO)c1cccc2c1NC(c1ccc(C(F)(F)F)cc1)C2 (stereo not drawn) [Compound 38-1, N-hydroxy-2-(4-(trifluoromethyl)phenyl)indoline-7-carboxamide] | 500 to 1000
3 | CC(=O)N1CCc2nc(N3Cc4cccc(C(=O)NO)c4C3)[nH]c2C1 [Compound 14-1, 2-(5-acetyl-4,5,6,7-tetrahydro-3H-imidazo[4,5-c]pyridin-2-yl)-N-hydroxyisoindoline-4-carboxamide hydrochloride] | > 1000
4 | CC1(C)c2cccc(C(=O)NO)c2CN1c1ccc2ccc(C(F)(F)F)cc2n1 [Compound 23-2, N-hydroxy-1,1-dimethyl-2-(7-(trifluoromethyl)quinolin-2-yl)isoindoline-4-carboxamide] | 500 to 1000
5 | O=C(NO)c1cccc2c1CN(C(=O)c1ccccc1)C2 [Compound 41-1, 2-benzoyl-N-hydroxyisoindoline-4-carboxamide] | > 1000
6 | O=C(NO)c1cccc2c1CN(c1ccccc1)C2 [Compound 42-1, N-hydroxy-2-phenylisoindoline-4-carboxamide] | > 1000
7 | CC1(C)c2cccc(C(=O)NO)c2CN1C(=O)Nc1ccnc(C(F)(F)F)c1 [Compound 30-3, N4-hydroxy-1,1-dimethyl-N2-(2-(trifluoromethyl)pyridin-4-yl)isoindoline-2,4-dicarboxamide] | < 500
8 | O=C(NO)c1cccc2c1CN(c1nc3ccncc3o1)C2 [Compound 5-2, N-hydroxy-2-(oxazolo[5,4-c]pyridin-2-yl)isoindoline-4-carboxamide] | > 1000
9 | CCC(C(=O)N1Cc2cccc(C(=O)NO)c2C1)c1ccc(OC)cc1 (stereo not drawn) [Compound 28-3, N-hydroxy-2-(2-(4-methoxyphenyl)butanoyl)isoindoline-4-carboxamide] | > 1000
10 | CC1(C)c2cccc(C(=O)NO)c2N[C@@H]1c1ccc(C(F)(F)F)cc1 [Compound 40-6, (R)-N-hydroxy-3,3-dimethyl-2-(4-(trifluoromethyl)phenyl)indoline-7-carboxamide] | > 1000
11 | O=C(NO)c1cccc2c1CN(c1cnc3cccnc3c1)C2 [Compound 8-1, N-hydroxy-2-(1,5-naphthyridin-3-yl)isoindoline-4-carboxamide] | > 1000
12 | CC1(C)c2cccc(C(=O)NO)c2CN1c1cc(C#N)c(C(F)(F)F)cn1 [Compound 27-2, 2-(4-cyano-5-(trifluoromethyl)pyridin-2-yl)-N-hydroxy-1,1-dimethylisoindoline-4-carboxamide] | < 500
13 | Cc1cnc(N2Cc3cccc(C(=O)NO)c3C2)[nH]1 [Compound 7-5, N-hydroxy-2-(5-methyl-1H-imidazol-2-yl)isoindoline-4-carboxamide] | > 1000
14 | CC1(C)c2cccc(C(=O)NO)c2N[C@@H]1c1ccc(C(F)(F)F)cn1 [Compound 40-2, (S)—N-hydroxy-3,3-dimethyl-2-(5-(trifluoromethyl)pyridin-2-yl)indoline-7-carboxamide] | < 500
15 | CC1(C)c2cccc(C(=O)NO)c2CN1c1nc2ccc(C(F)(F)F)cc2o1 [Compound 18-3, N-hydroxy-1,1-dimethyl-2-(6-(trifluoromethyl)benzo[d]oxazol-2-yl)isoindoline-4-carboxamide] | < 500
16 | CC1(C)c2cccc(C(=O)NO)c2CN1c1nc(C(F)(F)F)cs1 [Compound 22-9, N-hydroxy-1,1-dimethyl-2-(4-(trifluoromethyl)thiazol-2-yl)isoindoline-4-carboxamide] | > 1000
17 | COCCn1c(N2Cc3cccc(C(=O)NO)c3C2)nc2ccccc21 [Compound 1-7, N-hydroxy-2-(1-(2-methoxyethyl)-1H-benzo[d]imidazol-2-yl)isoindoline-4-carboxamide] | > 1000
18 | O=C(NO)c1cccc2c1CN(c1nc3cnccc3o1)C2 [Compound 6-1, N-hydroxy-2-(oxazolo[4,5-c]pyridin-2-yl)isoindoline-4-carboxamide hydrochloride] | 500 to 1000
19 | CC1(C)c2cccc(C(=O)NO)c2N[C@H]1c1cnc(C(F)(F)F)cn1 [Compound 40-3, (R)-N-hydroxy-3,3-dimethyl-2-(5-(trifluoromethyl)pyrazin-2-yl)indoline-7-carboxamide] | < 500
20 | O=C(NO)c1cccc2c1CN(c1nc3c(o1)CCC(C(F)(F)F)C3)C2 (stereo not drawn) [Compound 16-1, N-hydroxy-2-(5-(trifluoromethyl)-4,5,6,7-tetrahydrobenzo[d]oxazol-2-yl)isoindoline-4-carboxamide] | < 500

Row | SMILES | IC50 [nM]
21 | O=C(NO)c1cccc2c1CN(c1nc3ncccc3s1)C2 [Compound 10-1, N-hydroxy-2-(thiazolo[4,5-b]pyridin-2-yl)isoindoline-4-carboxamide] | > 1000
22 | O=C(NO)c1cccc2c1CN(c1nc3cc(C(F)(F)F)ccc3s1)C2 [Compound 11-1, N-hydroxy-2-(5-(trifluoromethyl)benzo[d]thiazol-2-yl)isoindoline-4-carboxamide] | < 500
23 | CC1(C)c2cccc(C(=O)NO)c2CN1C(=O)Nc1ccc(C(F)(F)F)nc1 [Compound 30-1, N4-hydroxy-1,1-dimethyl-N2-(6-(trifluoromethyl)pyridin-3-yl)isoindoline-2,4-dicarboxamide] | 500 to 1000
24 | CC1(C)c2cccc(C(=O)NO)c2CN1C(=O)Nc1cccc(C(F)(F)F)n1 [Compound 30-6, N4-hydroxy-1,1-dimethyl-N2-(6-(trifluoromethyl)pyridin-2-yl)isoindoline-2,4-dicarboxamide] | > 1000
25 | O=C(NO)c1cccc2c1CN(c1nc3cccnc3[nH]1)C2 [Compound 4-1, N-hydroxy-2-(3H-imidazo[4,5-b]pyridin-2-yl)isoindoline-4-carboxamide] | > 1000
26 | O=C(NO)c1cccc2c1CN(c1nc3c([nH]1)C[C@@H](C(F)(F)F)CC3)C2 (single isomer, unassigned) [Compound 2-2, hydrochloride] | < 500
27 | O=C(NO)c1cccc2c1N[C@@H](c1ccc(C(F)(F)F)cc1)C2 [Compound 39-1, (R)—N-hydroxy-2-(4-(trifluoromethyl)phenyl)indoline-7-carboxamide] | < 500
28 | CC1(C)c2cccc(C(=O)NO)c2CN1c1nc2cc(C(F)(F)F)ccc2s1 [Compound 20-2, N-hydroxy-1,1-dimethyl-2-(5-(trifluoromethyl)benzo[d]thiazol-2-yl)isoindoline-4-carboxamide] | < 500
29 | O=C(NO)c1cccc2c1CN(c1ccc3ncccc3n1)C2 [Compound 7-3, N-hydroxy-2-(1,5-naphthyridin-2-yl)isoindoline-4-carboxamide] | > 1000
30 | O=C(NO)c1cccc2c1CN(c1nc3c([nH]1)C[C@H](C(F)(F)F)CC3)C2 (single isomer, unassigned) [Compound 2-1, hydrochloride] | < 500
31 | O=C(NO)c1cccc2c1CN(c1ccc3c(c1)NCCO3)C2 [Compound 9-2, 2-(3,4-dihydro-2H-benzo[b][1,4]oxazin-6-yl)-N-hydroxyisoindoline-4-carboxamide] | > 1000
32 | CC1(C)c2cccc(C(=O)NO)c2CN1c1ccc2nc(C(F)(F)F)ccc2n1 [Compound 24-1, N-hydroxy-1,1-dimethyl-2-(6-(trifluoromethyl)-1,5-naphthyridin-2-yl)isoindoline-4-carboxamide] | < 500
33 | CC1(C)c2cccc(C(=O)NO)c2CN1c1nc2cnccc2o1 [Compound 21-1, N-hydroxy-1,1-dimethyl-2-(oxazolo[4,5-c]pyridin-2-yl)isoindoline-4-carboxamide] | < 500
34 | CC1(C)c2cccc(C(=O)NO)c2CN1c1nc2c(o1)CCC(C(F)(F)F)C2 (stereo not drawn) [Compound 19-1, N-hydroxy-1,1-dimethyl-2-[5-(trifluoromethyl)-4,5,6,7-tetrahydro-1,3-benzoxazol-2-yl]-2,3-dihydro-1H-isoindole-4-carboxamide] | < 500
35 | O=C(NO)c1cccc2cc(-c3cnc(C(F)(F)F)cn3)[nH]c12 [Compound 37-3, N-hydroxy-2-(5-(trifluoromethyl)pyrazin-2-yl)-1H-indole-7-carboxamide] | < 500
36 | CC1(C)c2cccc(C(=O)NO)c2CN1C(=O)Nc1nc2ccccc2o1 [Compound 30-7, N2-(benzo[d]oxazol-2-yl)-N4-hydroxy-1,1-dimethylisoindoline-2,4-dicarboxamide] | > 1000
37 | CC1(C)c2cccc(C(=O)NO)c2CN1C(=O)c1cccc(C(F)(F)F)c1 [Compound 28-2, N-hydroxy-1,1-dimethyl-2-(3-(trifluoromethyl)benzoyl)isoindoline-4-carboxamide] | > 1000
38 | O=C(NO)c1cccc2c1CN(c1nc3cccc(-c4ccccc4)c3[nH]1)C2 [Compound 35-2, N-hydroxy-2-(7-phenyl-1H-benzo[d]imidazol-2-yl)isoindoline-4-carboxamide] | > 1000
39 | O=C(NO)c1cccc2c1N[C@H](c1ccc(C(F)(F)F)cc1)C2 [Compound 39-2, (S)—N-hydroxy-2-(4-(trifluoromethyl)phenyl)indoline-7-carboxamide] | > 1000

Reference: patent US11535607B2, “Isoindolines as HDAC inhibitors” (Valo Health, Inc., priority 2018, dated 2022)
